# Reference: patent US9115093B2, “Substituted bicyclic dihydropyrimidinones and their use as inhibitors of neutrophil elastase activity” (Boehringer Ingelheim International GmbH, priority 2013, dated 2015)
# Biological target: T1, neutrophil elastase (Homo sapiens, UniProt P08246)
# T1 sequence (P08246 30-247 limits assumed): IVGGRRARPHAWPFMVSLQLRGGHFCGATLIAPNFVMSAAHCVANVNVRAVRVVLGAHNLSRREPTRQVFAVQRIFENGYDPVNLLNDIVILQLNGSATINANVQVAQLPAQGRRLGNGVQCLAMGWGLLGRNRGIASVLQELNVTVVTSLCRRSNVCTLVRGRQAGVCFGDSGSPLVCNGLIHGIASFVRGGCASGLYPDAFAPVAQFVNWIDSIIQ
# Experiment: Human Neutrophil Elastase Assay
# Type: biochemical
# Set-up: purchased Calbiochem 324681
# Conditions: substrate MeOSuc-Ala-Ala-Pro-Val-AMC, pH 7.5, room temperature
# Method: Human Neutrophil Elastase Assay
# Materials: Human neutrophil elastase was purchased from Calbiochem (Cat.No.: 324681) and the elastase substrate MeOSuc-Ala-Ala-Pro-Val-AMC from Bachem (Cat.No.: I-1270). All other materials were of the highest grade commercially available.
# The following buffers were used: Compound buffer: 100 mM Tris, 500 mM NaCl, adjusted to pH 7.5; Assay buffer: 100 mM Tris, 500 mM NaCl, adjusted to pH 7.5, containing 0.01% BSA.
# Assay conditions: Test compounds were prediluted in DMSO and subsequently in compound buffer (5% DMSO final). 5 μL of these compound dilutions were mixed with 10 μl Neutrophil elastase (9 ng/ml in assay buffer) in a black 384 well OptiPlate (Perkin Elmer, Cat No.: 6007270) and incubated for 15 min at room temperature. Subsequently 10 μL substrate solution in assay buffer were added (250 nM final concentration) and the plates were incubated for 60 min at room temperature. After inactivation of the enzyme, fluorescence intensities were measured at 380 nm excitation and 460 nm emission wavelengths.
# Each plate contains wells with a high value control (DMSO+enzyme+substrate) and wells with a low value control (DMSO+inactivated enzyme+substrate). IC50 values were estimated using a sigmoidal concentration response curve with variable slope. Means of low values were taken as 0%, means of high values as 100%.
row,IC50,SMILES
1,6 nM,"N#Cc1ccc(C2C3=C(CCCC3=O)N(c3cccc(C(F)(F)F)c3)C(=O)N2C(N)=O)cc1 (stereo not shown) [Example 70, 4-(4-Cyanophenyl)-2,5-dioxo-1-(3-(trifluoromethyl)phenyl)-1,2,5,6,7,8-hexahydroquinazoline-3(4H)-carboxamide]"
2,1.2 nM,N#Cc1ccc(C2C3=C(CCCC3=O)N(c3cccc(C(F)(F)F)c3)C(=O)N2CC(=O)N2CC3CC3C2)cc1 (stereo not shown) [Example 36.6]
3,6.2 nM,N#Cc1ccc(C2C3=C(CCCC3=O)N(c3cccc(C(F)(F)F)c3)C(=O)N2CC(=O)N2CCn3cccc3C2)cc1 (stereo not shown) [Example 36.48]
4,2.1 nM,COC1CCN(C(=O)CN2C(=O)N(c3cccc(C(F)(F)F)c3)C3=C(C(=O)CCC3)C2c2ccc(C#N)cc2)C1 (stereo not shown) [Example 36.23]
5,1.7 nM,CC1(O)CCN(C(=O)CN2C(=O)N(c3cccc(C(F)(F)F)c3)C3=C(C(=O)CCC3)C2c2ccc(C#N)cc2)C1 (stereo not shown) [Example 36.25]
6,< 1 nM,N#Cc1ccc(C2C3=C(CCCC3=O)N(c3cccc(C(F)(F)F)c3)C(=O)N2C(=O)NC2CCOC2)cc1 (stereo not shown) [Example 70.8]
7,13.9 nM,N#Cc1ccc(C2C3=C(CCCC3=O)N(c3cccc(C(F)(F)F)c3)C(=O)N2CC(=O)NCCN2CCOCC2)cc1 (stereo not shown) [Example 36.63]
8,2.4 nM,CC(C)(CO)NC(=O)N1C(=O)N(c2cccc(C(F)(F)F)c2)C2=C(C(=O)CCC2)C1c1ccc(C#N)cc1 (stereo not shown) [Example 70.10]
9,7.4 nM,CN(CC1(C)COC1)C(=O)CN1C(=O)N(c2cccc(C(F)(F)F)c2)C2=C(C(=O)CCC2)C1c1ccc(C#N)cc1 (stereo not shown) [Example 36.41]
10,5.8 nM,CN1CCC2(CCN(C(=O)CN3C(=O)N(c4cccc(C(F)(F)F)c4)C4=C(C(=O)CCC4)C3c3ccc(C#N)cc3)C2)C1 (stereo not shown) [Example 36.66]
11,11.1 nM,Cn1ccc(CN2C(=O)N(c3cccc(C(F)(F)F)c3)C3=C(C(=O)CCC3)C2c2ccc(C#N)cc2)n1 (stereo not shown) [Example 24.3]
12,6.4 nM,"COCCCN1C(=O)N(c2cccc(C(F)(F)F)c2)C2=C(C(=O)CCC2)C1c1ccc(C#N)cc1 (stereo not shown) [Example 24, 4-(1-(3-(Trifluoromethyl)phenyl)-3-(3-methoxypropyl)-2,5-dioxo-1,2,3,4,5,6,7,8-octahydroquinazolin-4-yl)benzonitrile]"
13,1 nM,CCCNC(=O)N1C(=O)N(c2cccc(C(F)(F)F)c2)C2=C(C(=O)CCC2)C1c1ccc(C#N)cc1 (stereo not shown) [Example 39.2]
14,< 1 nM,CN1CCC(NC(=O)N2C(=O)N(c3cccc(C(F)(F)F)c3)C3=C(C(=O)CCC3)C2c2ccc(C#N)cc2)C1=O (stereo not shown) [Example 39.15]
15,1.4 nM,N#Cc1ccc(C2C3=C(CCCC3=O)N(c3cccc(C(F)(F)F)c3)C(=O)N2C(=O)NCC2CC2)cc1 (stereo not shown) [Example 70.5]
16,< 1 nM,N#Cc1ccc(C2C3=C(CCCC3=O)N(c3cccc(C(F)(F)F)c3)C(=O)N2C(=O)NC2CCS(=O)(=O)C2)cc1 (stereo not shown) [Example 70.19]
17,29 nM,"COC(=O)c1ccc(CN2C(=O)N(c3cccc(C(F)(F)F)c3)C3=C(C(=O)CCC3)C2c2ccc(C#N)cc2)o1 (stereo not shown) [Example 28, Methyl 5-((4-(4-Cyanophenyl)-2,5-dioxo-1-(3-(trifluoromethyl)phenyl)-1,2,5,6,7,8-hexahydroquinazolin-3(4H)-yl)methyl)furan-2-carboxylate]"
18,88.7 nM,"CC(C)(C)COC(=O)N1C(=O)N(c2cccc(C(F)(F)F)c2)C2=C(C(=O)CCC2)C1c1ccc(C#N)cc1 (stereo not shown) [Example 42, Neopentyl 4-(4-Cyanophenyl)-2,5-dioxo-1-(3-(trifluoromethyl)phenyl)-1,2,5,6,7,8-hexahydroquinazoline-3(4H)-carboxylate]"
19,63.3 nM,N#Cc1ccc(C2C3=C(CCCC3=O)N(c3cccc(C(F)(F)F)c3)C(=O)N2C(=O)N2CCOCC2)cc1 (stereo not shown) [Example 39.7]
20,1410 nM,"N#Cc1ccc([C@H]2C3=C(CCCC3=O)N(c3cccc(C(F)(F)F)c3)C(=O)N2CC(=O)O)cc1 [Example 32B, (S)-2-(4-(4-Cyanophenyl)-2,5-dioxo-1-(3-(trifluoromethyl)phenyl)-1,2,5,6,7,8-hexahydroquinazolin-3(4H)-yl)acetic acid]"
21,8.6 nM,CN1CC(CNC(=O)CN2C(=O)N(c3cccc(C(F)(F)F)c3)C3=C(C(=O)CCC3)C2c2ccc(C#N)cc2)CC1=O (stereo not shown) [Example 36.59]

# The next lines start with the compound.
row,SMILES,IC50
1,Cn1cc(CNC(=O)CN2C(=O)N(c3cccc(C(F)(F)F)c3)C3=C(C(=O)CCC3)C2c2ccc(C#N)cc2)cn1 (stereo not shown) [Example 36.31],7.8 nM
2,"Cn1ccc(CN2C(=O)N(c3cccc(C(F)(F)F)c3)C3=C(C(=O)CCC3)C2c2ccc(C#N)cc2)cc1=O (stereo not shown) [Example 27, 4-(1-(3-(Trifluoromethyl)phenyl)-3-((1-methyl-2-oxo-1,2-dihydropyridin-4-yl)methyl)-2,5-dioxo-1,2,3,4,5,6,7,8-octahydroquinazolin-4-yl)benzonitrile]",10.8 nM
3,CS(=O)(=O)c1cc(C#N)ccc1C1C2=C(CCCC2=O)N(c2cccc(C(F)(F)F)c2)C(=O)N1C(=O)NCCO (stereo not shown) [Example 47.2],< 1 nM
4,CN(C)CCCN(C)C(=O)CN1C(=O)N(c2cccc(C(F)(F)F)c2)C2=C(C(=O)CCC2)C1c1ccc(C#N)cc1 (stereo not shown) [Example 36.43],12.1 nM
5,"N#Cc1ccc(C2NC(=O)N(c3cccc(C(F)(F)F)c3)C3=C2C(=O)CC(C(=O)O)C3)cc1 (stereo not shown) [Example 10, 4-(4-Cyanophenyl)-2,5-dioxo-1-(3-(trifluoromethyl)phenyl)-1,2,3,4,5,6,7,8-octahydroquinazoline-7-carboxylic acid]",48.5 nM
6,CS(=O)(=O)c1ccc(CNC(=O)N2C(=O)N(c3cccc(C(F)(F)F)c3)C3=C(C(=O)CCC3)C2c2ccc(C#N)cc2)nc1 (stereo not shown) [Example 39.20],< 1 nM
7,"Cc1cc(C#N)ccc1C1C2=C(CCCC2=O)N(c2cccc(C(F)(F)F)c2)C(=O)N1C (stereo not shown) [Example 63, 3-Methyl-4-(3-methyl-2,5-dioxo-1-(3-(trifluoromethyl)phenyl)-1,2,3,4,5,6,7,8-octahydroquinazolin-4-yl)benzonitrile]",7.9 nM
8,"COC(=O)CCCS(=O)(=O)N1C(=O)N(c2cccc(C(F)(F)F)c2)C2=C(C(=O)CCC2)C1c1ccc(C#N)cc1 (stereo not shown) [Example 44.10, methyl 4-(4-(4-cyanophenyl)-2,5-dioxo-1-(3-(trifluoromethyl)phenyl)-1,2,5,6,7,8-hexahydroquinazolin-3(4H)-ylsulfonyl)butanoate]",5.2 nM
9,"Cc1cc(C#N)ccc1C1C2=C(CCCC2=O)N(c2cccc(C(F)(F)F)c2)C(=O)N1S(C)(=O)=O (stereo not shown) [Example 66, 3-Methyl-4-(3-(methylsulfonyl)-2,5-dioxo-1-(3-(trifluoromethyl)phenyl)-1,2,3,4,5,6,7,8-octahydroquinazolin-4-yl)benzonitrile]",2 nM
10,"CS(=O)(=O)N1C(=O)N(c2ccnc(C(F)(F)F)c2)C2=C(C(=O)CCC2)C1c1ccc(C#N)cc1 (stereo not shown) [Example 69, 4-(3-(Methylsulfonyl)-2,5-dioxo-1-(2-(trifluoromethyl)pyridin-4-yl)-1,2,3,4,5,6,7,8-octahydroquinazolin-4-yl)benzonitrile]",23.8 nM
11,CC(C)(O)CNC(=O)N1C(=O)N(c2cccc(C(F)(F)F)c2)C2=C(C(=O)CCC2)[C@H]1c1ccc(C#N)cc1S(C)(=O)=O [Example 75.12],< 1 nM
12,Cn1cc(NC(=O)CN2C(=O)N(c3cccc(C(F)(F)F)c3)C3=C(C(=O)CCC3)C2c2ccc(C#N)cc2)ccc1=O (stereo not shown) [Example 36.53],10.7 nM
13,"CC1(C)CCC2=C(C1=O)C(c1ccc(C#N)cc1)NC(=O)N2c1cccc(C(F)(F)F)c1 (stereo not shown) [Example 2, 4-(6,6-Dimethyl-2,5-dioxo-1-(3-(trifluoromethyl)phenyl)-1,2,3,4,5,6,7,8-octahydroquinazolin-4-yl)benzonitrile]",44.9 nM
14,"N#Cc1ccc(C2NC(=O)N(c3cccc(C(F)(F)F)c3)C3=C2C(=O)CCC3)c(Cl)c1 (stereo not shown) [Example 56, 3-Chloro-4-(2,5-dioxo-1-(3-(trifluoromethyl)phenyl)-1,2,3,4,5,6,7,8-octahydroquinazolin-4-yl)benzonitrile]",34 nM
15,CS(=O)(=O)c1cc(C#N)ccc1C1C2=C(CCCC2=O)N(c2cccc(C(F)(F)F)c2)C(=O)N1CC1CCOCC1 (stereo not shown) [Example 58.5],1.9 nM
16,CN(Cc1ccccc1)C(=O)CN1C(=O)N(c2cccc(C(F)(F)F)c2)C2=C(C(=O)CCC2)C1c1ccc(C#N)cc1 (stereo not shown) [Example 36.47],13.8 nM
17,CC(=O)NCCNC(=O)CN1C(=O)N(c2cccc(C(F)(F)F)c2)C2=C(C(=O)CCC2)C1c1ccc(C#N)cc1 (stereo not shown) [Example 36.26],17.8 nM
18,"CCOC(=O)C(F)N1C(=O)N(c2cccc(C(F)(F)F)c2)C2=C(C(=O)CCC2)C1c1ccc(C#N)cc1 (stereo not shown) [Example 60, Ethyl 2-(4-(4-Cyanophenyl)-2,5-dioxo-1-(3-(trifluoromethyl)phenyl)-1,2,5,6,7,8-hexahydroquinazolin-3(4H)-yl)-2-fluoroacetate]",21.6 nM
19,"CC1(C)CC(=O)C2=C(C1)N(c1cccc(C(F)(F)F)c1)C(=O)NC2c1ccc(C#N)cc1 (stereo not shown) [Example 3, 4-(7,7-Dimethyl-2,5-dioxo-1-(3-(trifluoromethyl)phenyl)-1,2,3,4,5,6,7,8-octahydroquinazolin-4-yl)benzonitrile]",68.3 nM
